According to patent publication US9156834B2, “Derivatives of heteroarylsulfonamides, their preparation and their application in human therapy” (PIERRE FABRE MEDICAMENT, priority 2010, dated 2015):
Structures can show the parent of a compound that is named as a salt.

Experiments:
[1] = biological target: T1, human isoform of the Kv1.5 channels (Homo sapiens, UniProt P22460); test: FLIPR thallium ion measurement on potassium channel Kv1.5; format: cell-based; settings: HEK293 cells stably transfected with hKv1.5; compound 10 μM, 15 min at 37° C.; fluorescence normalised with 10 μM DPO
T1 construct: expressed in transfected cells; host or cells: HEK293
T1 sequence (P22460 whole entry, canonical isoform): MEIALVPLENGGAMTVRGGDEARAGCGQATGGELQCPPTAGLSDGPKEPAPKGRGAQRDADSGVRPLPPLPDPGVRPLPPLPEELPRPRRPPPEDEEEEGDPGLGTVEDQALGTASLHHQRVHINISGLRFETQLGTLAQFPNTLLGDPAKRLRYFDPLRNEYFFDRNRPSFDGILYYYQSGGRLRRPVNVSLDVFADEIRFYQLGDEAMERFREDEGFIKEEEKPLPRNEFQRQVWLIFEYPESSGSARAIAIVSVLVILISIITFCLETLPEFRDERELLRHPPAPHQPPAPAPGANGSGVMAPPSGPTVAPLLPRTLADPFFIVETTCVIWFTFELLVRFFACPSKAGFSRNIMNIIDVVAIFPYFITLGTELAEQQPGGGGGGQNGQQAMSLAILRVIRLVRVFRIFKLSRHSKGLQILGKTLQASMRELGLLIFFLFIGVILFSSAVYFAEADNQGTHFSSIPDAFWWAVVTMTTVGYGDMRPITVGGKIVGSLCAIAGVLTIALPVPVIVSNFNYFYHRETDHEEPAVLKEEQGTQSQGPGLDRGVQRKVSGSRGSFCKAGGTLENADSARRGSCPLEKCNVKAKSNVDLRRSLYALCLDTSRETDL
Procedure: The pharmacological evaluation of the compounds on potassium channel Kv1.5 was undertaken using a 96-well plate and FLIPR technology by thallium ion measurement. The HEK293 cells, transfected in a stable manner with the human isoform of the Kv1.5 channels, are seeded 24 h before the experiment in 96-well plates ([…], 200 μl/well) with polylysine applied in the following culture medium: DMEM, 10% SVF, Penicillin/Streptomycin, G418 as the selection antibiotic.
The FLIPR experiment is undertaken using “FLIPR Potassium Ion Channel Assay Kit”, as indicated by the manufacturer (Molecular Devices).
Briefly, the culture medium is replaced by the solution containing the thallium marker for 90 min at 37° C. On conclusion of this step the compounds for testing are added to a final concentration of 10 μM in the well for 15 min at 37° C. The basic fluorescence is then read for 60 sec. The addition of depolarising medium (20 mM of potassium and 3 mM of final thallium) opens the potassium channels and causes an increase of the fluorescence of the thallium fluorophore corresponding to an influx of thallium ions through the hKv1.5 channels. The measurement is made 30 sec after the injection of the depolarising solution. The application of 10 μM DPO (Tocris, blocker of the Kv1.5 channels) enables the fluorescence to be normalised.

SMILES	inhibition at 10 µM [1] [%]	also measured
O=C(c1cccc(NS(=O)(=O)c2ccccn2)c1)N1CCN(c2nc3ccc(Cl)cc3o2)CC1 [Example 10, N-(3-(4-(6-chlorobenzo[d]oxazol-2-yl)piperazine-1-carbonyl)-phenyl)pyridine-2-sulfonamide]	58.9	
O=C(c1ccccc1NS(=O)(=O)c1cccc2cccnc12)N1CCN(c2nc3ccc(Cl)cc3o2)CC1 [Example 17, N-(2-(4-(6-chlorobenzo[d]oxazol-2-yl)piperazine-1-carbonyl)-phenyl)quinoline-8-sulfonamide]	70.8	
O=C(c1ccccc1NS(=O)(=O)c1cccc2cccnc12)N1CCN(c2nc3ccc(OC(F)(F)F)cc3s2)CC1 [Example 19, N-(2-(4-(6-(trifluoromethoxy)benzo[d]thiazol-2-yl)piperazine-1-carbonyl)phenyl)quinoline-8-sulfonamide]	50.2	
O=C(c1ccccc1NS(=O)(=O)c1ccccn1)N1CCN(c2nc3ccc(Br)cc3s2)CC1 [Example 3, N-(2-(4-(6-bromobenzo[d]thiazol-2-yl)piperazine-1-carbonyl)phenyl)-pyridine-2-sulfonamide]		melting point: 102 °C; % inhibition at 10 μM [1]: 100%
O=S(=O)(Nc1ccccc1OC1CCN(c2nc3ccc(Cl)cc3s2)CC1)c1ccccn1 [Example 26]	65.8	
O=S(=O)(Nc1ccccc1OC1CCN(c2nc3ccccc3s2)CC1)c1ccccn1 [Example 25, N-(2-(1-(benzo[d]thiazol-2-yl)piperidin-4-yloxy)phenyl)pyridine-2-sulfonamide]	90.2	
O=C(c1ccccc1NS(=O)(=O)c1ccc(C(F)(F)F)cn1)N1CCN(c2nc3ccc(F)cc3o2)CC1 [Example 1, N-(2-(4-(6-fluorobenzo[d]oxazol-2-yl)piperazine-1-carbonyl)phenyl)-5-(trifluoromethyl)pyridine-2-sulfonamide]	61.4	
Cc1cccc2sc(N3CCN(C(=O)c4ccccc4NS(=O)(=O)c4ccccn4)CC3)nc12 [Example 5, N-(2-(4-(4-methylbenzo[d]thiazol-2-yl)piperazine-1-carbonyl)phenyl)-pyridine-2-sulfonamide]	90	
O=C(c1ccccc1NS(=O)(=O)c1cccc2cccnc12)N1CCN(c2nc3ccc(Br)cc3s2)CC1 [Example 16, N-(2-(4-(6-bromobenzo[d]thiazol-2-yl)piperazine-1-carbonyl)phenyl)-quinoline-8-sulfonamide]	68	
O=C(c1ccccc1NS(=O)(=O)c1ccc(C(F)(F)F)cn1)N1CCN(c2nc3ccc(Cl)cc3s2)CC1 [Example 8, N-(2-(4-(6-chlorobenzo[d]thiazol-2-yl)piperazine-1-carbonyl)phenyl)-5-(trifluoromethyl)pyridine-2-sulfonamide]	94.7	
O=C(c1ccccc1NS(=O)(=O)c1cccc2cccnc12)N1CCN(c2nc3ccc(Cl)cc3s2)CC1 [Example 18, N-(2-(4-(6-chlorobenzo[d]thiazol-2-yl)piperazine-1-carbonyl)-phenyl)quinoline-8-sulfonamide]	91.5	
O=S(=O)(Nc1ccccc1OC1CCN(c2nc3cc(Cl)ccc3o2)CC1)c1ccccn1 [Example 24, N-(2-(1-(5-chlorobenzo[d]oxazol-2-yl)piperidin-4-yloxy)phenyl)-pyridine-2-sulfonamide]	81	
Cc1cccc(S(=O)(=O)Nc2cccc(C(=O)N3CCN(c4nc5ccc(Cl)cc5s4)CC3)c2)n1 [Example 12, N-(3-(4-(6-chlorobenzo[d]thiazol-2-yl)piperazine-1-carbonyl)-phenyl)-6-methylpyridine-2-sulfonamide]	52.6	
Cc1cccc(S(=O)(=O)Nc2ccccc2C(=O)N2CCN(c3nc4ccc(Br)cc4s3)CC2)n1 (as salt: hydrochloride) [Example 9, N-(2-(4-(6-bromobenzo[d]thiazol-2-yl)piperazine-1-carbonyl)phenyl)-6-methylpyridine-2-sulfonamide dihydrochloride]		melting point: 180 °C
O=C(c1ccccc1NS(=O)(=O)c1ccccn1)N1CCN(c2nc3cc(C(F)(F)F)ccc3s2)CC1 [Example 7, N-(2-(4-(5-(trifluoromethyl)benzo[d]thiazol-2-yl)piperazine-1-carbonyl)phenyl)pyridine-2-sulfonamide]	94.9	
O=C(c1ccc(NS(=O)(=O)c2ccccn2)cc1)N1CCN(c2nc3ccc(F)cc3o2)CC1 [Example 13, N-(4-(4-(6-fluorobenzo[d]oxazol-2-yl)piperazine-1-carbonyl)phenyl)pyridine-2-sulfonamide]	100	
Cc1cccc2sc(N3CCCN(C(=O)c4ccccc4NS(=O)(=O)c4cccc5cccnc45)CC3)nc12 [Example 20, N-(2-(4-(4-methylbenzo[d]thiazol-2-yl)-1,4-diazepane-1-carbonyl)-phenyl)quinoline-8-sulfonamide]	82.8	

SMILES	inhibition at 10 µM [1] [%]	also measured
O=C(c1cccc(NS(=O)(=O)c2ccccn2)c1)N1CCN(c2nc3ccc(Cl)cc3s2)CC1 [Example 11, N-(3-(4-(6-chlorobenzo[d]thiazol-2-yl)piperazine-1-carbonyl)phenyl)-pyridine-2-sulfonamide]	75.1	
O=S(=O)(Nc1ccccc1OCC1CCN(c2nc3ccc(Cl)cc3s2)C1)c1ccccn1 (stereo not shown) [Example 30, N-(2-((1-(6-chlorobenzo[d]thiazol-2-yl)pyrrolidin-3-yl)methoxy)phenyl)pyridine-2-sulfonamide]	54.1	
Cc1cccc(S(=O)(=O)Nc2ccccc2C(=O)N2CCN(c3nc4ccc(Br)cc4s3)CC2)n1 [Example 9, N-(2-(4-(6-bromobenzo[d]thiazol-2-yl)piperazine-1-carbonyl)phenyl)-6-methylpyridine-2-sulfonamide dihydrochloride]	62.8	
O=C(c1ccc(NS(=O)(=O)c2ccccn2)cc1)N1CCN(c2nc3ccc(Cl)cc3s2)CC1 [Example 15, N-(4-(4-(6-chlorobenzo[d]thiazol-2-yl)piperazine-1-carbonyl)-phenyl)pyridine-2-sulfonamide]	70.2	
COc1cccc2sc(N3CCC(COc4ccccc4NS(=O)(=O)c4ccccn4)C3)nc12 (stereo not shown) [Example 32, N-(2-((1-(4-methoxybenzo[d]thiazol-2-yl)pyrrolidin-3-yl)methoxy)-phenyl)pyridine-2-sulfonamide]	53.7	
O=C(c1ccccc1NS(=O)(=O)c1ccccn1)N1CCN(c2nc3ccc(Cl)cc3s2)CC1 [Example 4, N-(2-(4-(6-chlorobenzo[d]thiazol-2-yl)piperazine-1-carbonyl)phenyl)pyridine-2-sulfonamide hydrochloride]	100	
O=S(=O)(Nc1ccccc1OC1CCN(c2nc3ccc(Cl)cc3o2)CC1)c1ccccn1 [Example 22, N-(2-(1-(6-chlorobenzo[d]oxazol-2-yl)piperidin-4-yloxy)phenyl)-pyridine-2-sulfonamide]	58.8	
O=S(=O)(Nc1ccccc1OCC1CCN(c2nc3ccc(F)cc3s2)C1)c1ccccn1 (stereo not shown) [Example 29, N-(2-((1-(6-fluorobenzo[d]thiazol-2-yl)pyrrolidin-3-yl)methoxy)phenyl)pyridine-2-sulfonamide]	64.5	
CC(C)(C)c1ccc2oc(N3CCC(Oc4ccccc4NS(=O)(=O)c4ccccn4)CC3)nc2c1 [Example 23, N-(2-(1-(5-tert-butylbenzo[d]oxazol-2-yl)piperidin-4-yloxy)phenyl)pyridine-2-sulfonamide]	51.8	
O=C(c1ccccc1NS(=O)(=O)c1ccccn1)N1CCN(c2nc3ccc(F)cc3s2)CC1 [Example 2, N-(2-(4-(6-fluorobenzo[d]thiazol-2-yl)piperazine-1-carbonyl)phenyl)-pyridine-2-sulfonamide]	100	
O=S(=O)(Nc1ccccc1OCC1CCN(c2nc3ccccc3s2)C1)c1ccccn1 (stereo not shown) [Example 28, N-(2-((1-(benzo[d]thiazol-2-yl)pyrrolidin-3-yl)methoxy)phenyl)-pyridine-2-sulfonamide]	76	
O=C(c1ccccc1NS(=O)(=O)c1ccccn1)N1CCN(c2nc3cccc(Cl)c3s2)CC1 [Example 6, N-(2-(4-(7-chlorobenzo[d]thiazol-2-yl)piperazine-1-carbonyl)phenyl)-pyridine-2-sulfonamide]	91.8	
O=S(=O)(Nc1ccccc1OC1CCN(c2nc3ccc(Br)cc3s2)CC1)c1ccccn1 [Example 27, N-(2-(1-(6-bromobenzo[d]thiazol-2-yl)piperidin-4-yloxy)phenyl)-pyridine-2-sulfonamide]	100	
O=C(c1ccc(NS(=O)(=O)c2ccccn2)cc1)N1CCN(c2nc3ccc(Cl)cc3o2)CC1 [Example 14, N-(4-(4-(6-chlorobenzo[d]oxazol-2-yl)piperazine-1-carbonyl)phenyl)pyridine-2-sulfonamide]	68.7	
Cc1cccc2sc(N3CCC(COc4ccccc4NS(=O)(=O)c4ccccn4)C3)nc12 (stereo not shown) [Example 31, N-(2-((1-(4-methylbenzo[d]thiazol-2-yl)pyrrolidin-3-yl)methoxy)phenyl)pyridine-2-sulfonamide]	56	
Cc1ccc2nc(N3CCC(Oc4ccccc4NS(=O)(=O)c4ccccn4)CC3)oc2c1 [Example 21, N-(2-(1-(6-methylbenzo[d]oxazol-2-yl)piperidin-4-yloxy)phenyl)pyridine-2-sulfonamide]	54.6	
